Source: patent US6642209B1, “Use of adenosine compounds to alleviate or normalize pathologically hyperexcited sensory nerve function in a human patient” (priority 1990, dated 2003)
Entries after “also recorded” stand apart in the source; their conditions may differ. Like-named read-outs stand apart in the source and are kept apart here.

Key:
[1] = system: New Zealand white rabbits
rabbits [2] = assay: Analgesic activity of adenosine compared with morphine sulfate, tail/ear clamp and electrical stimulation; settings: under 60% N2O, infusion, n = 6
[3] = system: New Zealand white rabbits; assay: Electrical tail stimulation screening: head lift (hypnotic) and escape movement (analgesic) thresholds; type: in vivo, rabbit
rabbits [4] = settings: rabbit, in vivo
experimental animals [5] = assay: Lethal to effective dose margin; type: in vivo; settings: for lethal dose relative to the dose required for analgesia: in vivo
Experimental: In contrast to other conventional anesthetics, the adenosine compounds are useful over a wide dose range. For example, adenosine is active over a as range of between 1 to 5000 μg/kg/min. In contrast, conventional anesthetic agents, such as isoflurane, have narrow effective ranges. The fatal to effective anesthetic ratio of isoflurane is 3.02±0.13. Other reports indicate that isoflurane has about 1.88 times the safety range of halothane. […] Of course, the anesthesiologist will err on the side of administering too little and, thereby, runs the risk of underdosing the patient. This need for caution may result in an inadequately anesthetized (subanesthetized) patient during the surgical procedure.
One great advantage observed with adenosine compounds is the wide margin for error on effective therapeutic range. This advantage is exemplified by adenosine where the lethal dose is about 100 times the dose required for analgesia, and ATP where the lethal dose is greater than 150 times the amount required for analgesia.

rabbits [6] = assay: Hypothermia induced under adenosine or ATP infusion; type: in vivo, rabbit; settings: for survival during body temperature lowering / shivering during body temperature lowering: external cooling; for survival during body temperature lowering: Run 7 (five rabbits), Run 8 (six rabbits); for shivering during body temperature lowering: Run 7, Run 8
Experimental: The hypothermic and rewarming effects of an adenosine compound are tested in experimental animals prepared similarly as in the rabbit model described herein to test for anesthetic effects, except that the body temperature is allowed to fall. In animal studies (rabbit) where the room has a temperature of approximately 22° C., the body temperature will fall from a norm of about 39° C. to about 32° C. in about three hours. If the animal is cooled further with ice bags, a temperature of approximately 22° C. can be achieved in three hours without cardiovascular decompensation. Rewarming is done with the aid of a thermal blanket and heat lamp. The effective dosages of adenosine compound ranged from about 100 μg/kg/min to about 5000 μg/kg/min.
Referring to FIG. 7, the body temperature versus time plots are shown for eight different experiments. In Run 1, adenosine 500 μg/kg/min was administered intravenously to rabbits for six hours. The administration was then stopped and the body temperatures were allowed to recover.
In Run 2, ATP 500 μg/kg/min was administered intravenously for six hours. At that time, the body temperature was 31.5° C. The animal's body temperature was allowed to recover by applying external heating for four hours when (at the arrow) the external heating was removed and the temperature was allowed to fall. The body temperature again fell.
In Run 3, ATP was administered intravenously. The body temperature stabilized after ten hours at 32.5° C.
In Runs 4, 5, and 6, adenosine was administered to rabbits until the body temperature reached a constant value. In Run 4, after five hours, the body temperature stabilized at 33° C. In Run 6, after six hours, the temperature stabilized at 31.5° C.
In Run 7, five unmedicated New Zealand rabbits were anesthetized with halothane in O2 using a face mask. The ear vein was cannulated with a 22 gauge plastic catheter for drug infusion. 500 μg/kg/min to 5500 μ/kg/min adenosine was administered IV. Body temperature was monitored through a rectal thermometer. The body temperature started at approximately 38.5° C. After the application of ice bags, the temperature dropped approximately 5.5° C./hr until a minimum body temperature of approximately 22° C. was achieved.
The ice bags were removed and external heating applied. The body temperature of all rabbits returned to normal, and the rabbits were apparently normal.
In a comparison, in Run 8, six rabbits were anesthetized with isofluane and external cooling applied.

[7] = Anesthesia score chart comparing anesthetic agents for the four components of anesthesia (Table 1); design: key: 0 no effect; 1 minimal; 2 mostly; 3 maximal
dogs = assay: Oxygen transport and regional tissue oxygenation during graded induced hypotension; type: in vivo, dog; settings: for O2 supply/demand ratio: graded hypotension to MAP 30 mmHg
Experimental: Arterial and pulmonary artery (Swan-Ganz) catheters were placed via a femoral cut down. […] Another PO2 sensor probe was placed on the surface of the liver, kidney, subcutaneous, and muscle of the chest wall through a small skin incision. Referring to FIG. 6, the dogs were divided into three groups: (a) hemorrhagic (n=7), (b) isoflurane (n=8), and (c) ATP (n=8). […] The following were measured and/or calculated: […] The data were analyzed using ANOVA with the Bonferroni t-test and unpaired t-test where appropriate, accepting p<0.05 as significant.

experimental animals [8] = settings: cited from earlier work
surgical patients [9] = assay: ATP anesthesia replacing enflurane or N2O in patients undergoing oral surgery
rabbits [10] = assay: Replacement of enflurane anesthesia by ATP infusion, electrical tail stimulation and tail clamp
surgical patients [11] = assay: ATP infusion to attenuate surgical stress response in patients
[12] = increasing doses, 60% N2O baseline sedation, FIG. 1
[13] = Run 7, 500 to 5500 μg/kg/min IV, ice bags
[14] = N2O 60%, ENF 2.0-[…], ATP 362 ± 164 μg/kg/min, Mean ± SD, n = 6
[15] = GROUP A spontaneously breathing, ATP infusion time 60 min, n = 18, mean
[16] = GROUP A spontaneously breathing, ATP infusion time 120 min, n = 16, mean
[17] = GROUP A spontaneously breathing, ATP infusion time 180 min, n = 3, mean
[18] = GROUP A spontaneously breathing, ATP infusion time 240 min, n = 1
[19] = GROUP B mechanically breathing, ATP infusion time 60 min, n = 14, mean
[20] = GROUP B mechanically breathing, ATP infusion time 120 min, n = 10, mean
[21] = GROUP B mechanically breathing, ATP infusion time 180 min, n = 5, mean
[22] = GROUP B mechanically breathing, ATP infusion time 240 min, n = 4, mean

Nc1ncnc2c1ncn2[C@@H]1O[C@H](CO)[C@@H](O)[C@H]1O [adenosine]
reduction of the response to the noxious stimulation ([1]; intrathecal administration): as effective as intrathecal fentanyl | Δ HR ([1]; rabbit, in vivo): −22 ± 5 bpm | Δ MAP ([1]; rabbit, in vivo): −4 ± 5 mmHg | Δ PaCO2 ([1]; rabbit, in vivo): −6.8 ± 2.1 mmHg | Δ PaO2 ([1]; rabbit, in vivo): +10 ± 14 | Δ RR ([1]; rabbit, in vivo): −4 ± 10 bpm | dose that completely suppressed the responses to both kinds of stimulation (ED90) (rabbits [2]): 188 ± 20 µg/kg/min | drug accumulation or respiratory depression ([3]; continuous infusion for prolonged times): did not cause drug accumulation or respiratory depression | EM (purposeful escape movement, analgesic) threshold responses [3, 12]: elevated EM responses | HL (head lift, hypnotic) threshold responses [3, 12]: remained low | hemodynamic responses to noxious stimulation ([3]; rabbit, in vivo): effectively blocked | respiratory and blood gas effects ([3]; spontaneously breathing rabbits): maintained normal respiratory and blood gas parameters | BP (Systolic BP) (rabbits [4]): 101 ± 19 mmHg | HR (rabbits [4]): 230 ± 24 bpm | PaCO2 (rabbits [4]): 25 ± 4 mmHg | PaO2 (rabbits [4]): 126 ± 8 mmHg | RR (Respiratory Rate) (rabbits [4]): 85 ± 19 bpm | lethal dose relative to the dose required for analgesia (experimental animals [5]): about 100 times | body temperature at which it stabilized (rabbits [6]; Run 4, after five hours): 33 °C | body temperature at which it stabilized (rabbits [6]; Run 6, after six hours): 31.5 °C | minimum body temperature achieved (rabbits [6]; [13]): approximately 22 °C | rate of body temperature drop (rabbits [6]; [13]): approximately 5.5 ° C./hr | survival during body temperature lowering (rabbits [6]): All five rabbits survived | shivering during body temperature lowering (rabbits [6]): no shivering or other apparent discomfort was observed

FC(F)OC(Cl)C(F)(F)F (stereo not shown) [isoflurane]
Antinociception (analgesia, less pain perception) ([7]; Anesthesia Score 0 to 3): 1 | Inhibition of Stress (autonomic responses: blood pressure, heart rate; endocrine and metabolic responses) ([7]; Anesthesia Score 0 to 3): 1 | Muscle Relaxation ([7]; Anesthesia Score 0 to 3): 1 | Sleep (unconsciousness, amnesia, sedation) ([7]; Anesthesia Score 0 to 3): 3 | TOTALS of Anesthesia Score ([7]; sum of the four components): 6 | O2 supply/demand ratio (dogs): reduced O2 supply/demand ratio | O2 delivery (DO2) (dogs; graded hypotension, higher dosage): seriously depressed DO2 | fatal to effective anesthetic ratio (experimental animals [8]; in vivo): 3.02±0.13 | safety range relative to halothane (experimental animals [8]; other reports): about 1.88 times | survival during body temperature lowering (rabbits [6]): one rabbit expired due to ventricular fibrillation; also recorded: another expired due to pulmonary edema | shivering during body temperature lowering (rabbits [6]): shiver violently

Nc1ncnc2c1ncn2[C@@H]1O[C@H](COP(=O)(O)OP(=O)(O)OP(=O)(O)O)[C@@H](O)[C@H]1O [ATP, adenosine triphosphate]
ATP infusion dose titrated until ENF or N2O was completely replaced (surgical patients [9]; 14 patients, Mean ± SD): 108 ± 21 µg/kg/min | Urine output (surgical patients [9]; 14 patients, Mean ± SD): 111 ± 16 mL/h | ventilatory or blood gas deterioration (surgical patients [9]; during ATP infusion in spontaneously breathing patients): No ventilatory or blood gas deterioration was seen | purposeful escape movements on electrical tail stimulation (rabbits [10]; FIG. 4): purposeful escape movements decreased | analgesic effect after the infusion had stopped (rabbits [10]; IV ATP): selective analgesic effect persisted | DBP (rabbits [10]; [14]): 83 ± 16 mmHg | HR (rabbits [10]; [14]): 278 ± 26 bpm | PaCO2 (rabbits [10]; [14]): 22 ± 3 mmHg | PaO2 (rabbits [10]; [14]): 145 ± 24 mmHg | RR (Respiratory Rate) (rabbits [10]; [14]): 81 ± 14 bpm | SBP (rabbits [10]; [14]): 112 ± 20 mmHg | BE (surgical patients [11]; [15]): −3.3 | Hb (surgical patients [11]; [15]): 12.6 | PCO2 (surgical patients [11]; [15]): 44.1 | PO2 (surgical patients [11]; [15]): 140.9 | pH (arterial blood gas) (surgical patients [11]; [15]): 7.33 | BE (surgical patients [11]; [16]): −3.2 | Hb (surgical patients [11]; [16]): 12.8 | PCO2 (surgical patients [11]; [16]): 41.9 | PO2 (surgical patients [11]; [16]): 137.9 | pH (arterial blood gas) (surgical patients [11]; [16]): 7.34 | BE (surgical patients [11]; [17]): −3.0 | Hb (surgical patients [11]; [17]): 11.9 | PCO2 (surgical patients [11]; [17]): 39.9 | PO2 (surgical patients [11]; [17]): 165.5 | pH (arterial blood gas) (surgical patients [11]; [17]): 7.36 | BE (surgical patients [11]; [18]): −4.1 | Hb (surgical patients [11]; [18]): 10.7 | PCO2 (surgical patients [11]; [18]): 31.0 | PO2 (surgical patients [11]; [18]): 115.1 | pH (arterial blood gas) (surgical patients [11]; [18]): 7.39 | BE (surgical patients [11]; [19]): −4.2 | Hb (surgical patients [11]; [19]): 11.7 | PCO2 (surgical patients [11]; [19]): 40.2 | PO2 (surgical patients [11]; [19]): 140.3 | pH (arterial blood gas) (surgical patients [11]; [19]): 7.34 | BE (surgical patients [11]; [20]): −4.8 | Hb (surgical patients [11]; [20]): 11.2 | PCO2 (surgical patients [11]; [20]): 40.1 | PO2 (surgical patients [11]; [20]): 142.6 | pH (arterial blood gas) (surgical patients [11]; [20]): 7.33 | BE (surgical patients [11]; [21]): −5.2 | Hb (surgical patients [11]; [21]): 11.8 | PCO2 (surgical patients [11]; [21]): 41.6 | PO2 (surgical patients [11]; [21]): 130.4 | pH (arterial blood gas) (surgical patients [11]; [21]): 7.32 | BE (surgical patients [11]; [22]): −5.4 | Hb (surgical patients [11]; [22]): 11.7 | PCO2 (surgical patients [11]; [22]): 45.4 | PO2 (surgical patients [11]; [22]): 130.1 | pH (arterial blood gas) (surgical patients [11]; [22]): 7.288 | Intra-operative urine output (surgical patients [11]; Group A, spontaneous ventilation, n=20): 58.7 (±43.3) ml/hr | Intra-operative urine output (surgical patients [11]; Group B, mechanically ventilated, n=14): 71.8 (±44.6) ml/hr | emergence from anesthesia (surgical patients [11]; after discontinuation of N2O and ATP): all patients emerged from anesthesia smoothly | cardiovascular and neurobehavioral responses to surgery (surgical patients [11]; continuous infusion in combination with N2O): effectively inhibited | ENF requirement (surgical patients [11]; continuous infusion of ATP): markedly reduced | hemodynamic and respiratory functions (surgical patients [11]; during ATP infusion): well maintained | O2 supply/demand ratio (dogs): positive O2 supply/demand ratio in all stages of hypotension | deaths on overdose (experimental animals [5]; enormous overdoses): no experimental animals died | lethal dose relative to the dose required for analgesia (experimental animals [5]): greater than 150 times | body temperature (rabbits [6]; Run 2, 500 μg/kg/min intravenously for six hours): 31.5 °C | body temperature at which it stabilized (rabbits [6]; Run 3, intravenously, after ten hours): 32.5 °C
